Measurements reported in the supplement of paper PMC4862054.

How the values were obtained:
Conditions in all cases: incubation time: 72 h
BT-474 [1] = test: drug sensitivity score (DSS), CellTiter-Blue viability (DSS (AUC-based score)); higher = stronger viability inhibition; extreme values may be limits of the assay
Method: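 DSRT with the CellTiter-Blue (resazurin reduction) viability readout, fluorescence 560/590 nm, 72 h incubation. Plates were normalised to DMSO and benzethonium chloride controls. DSS is computed from the area under the fitted dose-response curve (5 or 9 concentrations).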

MDA-MB-436 = test: normalised viability (% of control), CellTiter-Blue; higher = more viable cells (about 100 = DMSO control)
Method: (§1)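 DSRT, CellTiter-Blue viability, 72 h incubation. Signal is normalised to DMSO and benzethonium chloride controls. Value is the normalised response at dose 3.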

CAL-120 = test: as above
Method: as §1

MDA-MB-453 = test: as above
Method: as §1

MDA-MB-231 = test: as above
Method: as §1

HCC1599 = test: as above
Method: as §1

BT-549 = test: as above
Method: as §1

Hs578T = test: as above
Method: as §1

CAL-85-1 = test: as above
Method: as §1

CAL-51 = test: as above
Method: as §1

HCC1937 = test: as above
Method: as §1

MDA-MB-468 = test: as above
Method: as §1

MFM-223 = test: as above
Method: as §1

HCC1143 = test: as above
Method: as §1

SK-BR-3 = test: as above
Method: as §1

CAL-148 = test: as above
Method: as §1

HDQ-P1 = test: as above
Method: as §1

DU-4475 = test: as above
Method: as §1

BT-474 [2] = test: as above
Method: as §1

COc1ccc(S(=O)(=O)Nc2cccnc2Nc2ccc(O)cc2)cc1 [ABT-751]
drug sensitivity score (BT-474 [1]): 7 | normalised viability (MDA-MB-436; 100 nM): 108% | normalised viability (CAL-120; 100 nM): 93% | normalised viability (MDA-MB-453; 10 nM): 87% | normalised viability (MDA-MB-231; 100 nM): 91.4% | normalised viability (HCC1599; 100 nM): 102% | normalised viability (BT-549; 100 nM): 89% | normalised viability (Hs578T; 100 nM): 88.1% | normalised viability (CAL-85-1; 10 nM): 88.8% | normalised viability (CAL-51; 10 nM): 113% | normalised viability (HCC1937; 100 nM): 92.4% | normalised viability (MDA-MB-468; 100 nM): 101% | normalised viability (MFM-223; 100 nM): 91% | normalised viability (HCC1143; 100 nM): 87.2% | normalised viability (SK-BR-3; 100 nM): 71.6% | normalised viability (CAL-148; 10 nM): 90.4% | normalised viability (HDQ-P1; 10 nM): 106% | normalised viability (DU-4475; 10 nM): 109% | normalised viability (BT-474 [2]; 100 nM): 112%

Cc1cc(Nc2nc(N[C@@H](C)c3ncc(F)cn3)ncc2Cl)[nH]n1 [AZD1480]
drug sensitivity score (BT-474 [1]): 0 | normalised viability (MDA-MB-436; 10 nM): 135% | normalised viability (CAL-120; 10 nM): 96.9% | normalised viability (MDA-MB-453; 1 nM): 108% | normalised viability (MDA-MB-231; 10 nM): 98.1% | normalised viability (HCC1599; 10 nM): 109% | normalised viability (BT-549; 10 nM): 94.3% | normalised viability (Hs578T; 10 nM): 90.8% | normalised viability (CAL-85-1; 1 nM): 106% | normalised viability (CAL-51; 1 nM): 112% | normalised viability (HCC1937; 10 nM): 100% | normalised viability (MDA-MB-468; 10 nM): 105% | normalised viability (MFM-223; 10 nM): 89.8% | normalised viability (HCC1143; 10 nM): 87.5% | normalised viability (SK-BR-3; 10 nM): 132% | normalised viability (CAL-148; 1 nM): 88.9% | normalised viability (HDQ-P1; 1 nM): 110% | normalised viability (DU-4475; 1 nM): 98.2% | normalised viability (BT-474 [2]; 10 nM): 124%

CNC(=O)c1ccccc1Sc1ccc2c(/C=C/c3ccccn3)n[nH]c2c1 [Axitinib]
drug sensitivity score (BT-474 [1]): 0 | normalised viability (MDA-MB-436; 100 nM): 70% | normalised viability (CAL-120; 100 nM): 96.8% | normalised viability (MDA-MB-453; 10 nM): 104% | normalised viability (MDA-MB-231; 100 nM): 102% | normalised viability (HCC1599; 100 nM): 89.7% | normalised viability (BT-549; 100 nM): 113% | normalised viability (Hs578T; 100 nM): 73.2% | normalised viability (CAL-85-1; 10 nM): 96% | normalised viability (CAL-51; 10 nM): 107% | normalised viability (HCC1937; 100 nM): 118% | normalised viability (MDA-MB-468; 100 nM): 101% | normalised viability (MFM-223; 100 nM): 82.6% | normalised viability (HCC1143; 100 nM): 101% | normalised viability (SK-BR-3; 100 nM): 58.8% | normalised viability (CAL-148; 10 nM): 98% | normalised viability (HDQ-P1; 10 nM): 100% | normalised viability (DU-4475; 10 nM): 113% | normalised viability (BT-474 [2]; 100 nM): 114%

CC(O)(CS(=O)(=O)c1ccc(F)cc1)C(=O)Nc1ccc(C#N)c(C(F)(F)F)c1 (stereo not drawn) [Bicalutamide]
drug sensitivity score (BT-474 [1]): 0 | normalised viability (MDA-MB-436; 100 nM): 98.7% | normalised viability (CAL-120; 100 nM): 97.2% | normalised viability (MDA-MB-453; 10 nM): 101% | normalised viability (MDA-MB-231; 100 nM): 105% | normalised viability (HCC1599; 100 nM): 83.7% | normalised viability (BT-549; 100 nM): 84.5% | normalised viability (Hs578T; 100 nM): 93.6% | normalised viability (CAL-85-1; 10 nM): 110% | normalised viability (CAL-51; 10 nM): 105% | normalised viability (HCC1937; 100 nM): 83% | normalised viability (MDA-MB-468; 100 nM): 94.6% | normalised viability (MFM-223; 100 nM): 87% | normalised viability (HCC1143; 100 nM): 99.8% | normalised viability (SK-BR-3; 100 nM): 94.1% | normalised viability (CAL-148; 10 nM): 109% | normalised viability (HDQ-P1; 10 nM): 121% | normalised viability (DU-4475; 10 nM): 103% | normalised viability (BT-474 [2]; 100 nM): 115%

CCNC(=O)CCC/C=C\C[C@@H]1[C@@H](/C=C/[C@@H](O)CCc2ccccc2)[C@H](O)C[C@@H]1O [Bimatoprost]
drug sensitivity score (BT-474 [1]): 0 | normalised viability (MDA-MB-436; 55 nM): 115% | normalised viability (CAL-120; 55 nM): 95.4% | normalised viability (MDA-MB-453; 5.5 nM): 105% | normalised viability (MDA-MB-231; 55 nM): 96.8% | normalised viability (HCC1599; 55 nM): 123% | normalised viability (BT-549; 55 nM): 98.7% | normalised viability (Hs578T; 55 nM): 80.7% | normalised viability (CAL-85-1; 5.5 nM): 104% | normalised viability (CAL-51; 5.5 nM): 113% | normalised viability (HCC1937; 55 nM): 102% | normalised viability (MDA-MB-468; 55 nM): 106% | normalised viability (MFM-223; 55 nM): 108% | normalised viability (HCC1143; 55 nM): 100% | normalised viability (SK-BR-3; 55 nM): 82.1% | normalised viability (CAL-148; 5.5 nM): 90.1% | normalised viability (HDQ-P1; 5.5 nM): 99.7% | normalised viability (DU-4475; 5.5 nM): 120% | normalised viability (BT-474 [2]; 55 nM): 126%

COc1cc(Nc2c(C#N)cnc3cc(OCCCN4CCN(C)CC4)c(OC)cc23)c(Cl)cc1Cl [Bosutinib]
drug sensitivity score (BT-474 [1]): 5.59 | normalised viability (MDA-MB-436; 100 nM): 130% | normalised viability (CAL-120; 100 nM): 90.4% | normalised viability (MDA-MB-453; 10 nM): 104% | normalised viability (MDA-MB-231; 100 nM): 121% | normalised viability (HCC1599; 100 nM): 108% | normalised viability (BT-549; 100 nM): 113% | normalised viability (Hs578T; 100 nM): 106% | normalised viability (CAL-85-1; 10 nM): 108% | normalised viability (CAL-51; 10 nM): 116% | normalised viability (HCC1937; 100 nM): 98.2% | normalised viability (MDA-MB-468; 100 nM): 107% | normalised viability (MFM-223; 100 nM): 90.3% | normalised viability (HCC1143; 100 nM): 84.3% | normalised viability (SK-BR-3; 100 nM): 74.8% | normalised viability (CAL-148; 10 nM): 84.6% | normalised viability (HDQ-P1; 10 nM): 128% | normalised viability (DU-4475; 10 nM): 109% | normalised viability (BT-474 [2]; 100 nM): 103%

CCN(CC)CCCC(C)Nc1ccnc2cc(Cl)ccc12 (stereo not drawn) [Chloroquine]
drug sensitivity score (BT-474 [1]): 0 | normalised viability (MDA-MB-436; 9.9 nM): 117% | normalised viability (CAL-120; 9.9 nM): 102% | normalised viability (MDA-MB-453; 0.99 nM): 100% | normalised viability (MDA-MB-231; 9.9 nM): 107% | normalised viability (HCC1599; 9.9 nM): 128% | normalised viability (BT-549; 9.9 nM): 104% | normalised viability (Hs578T; 9.9 nM): 90.2% | normalised viability (CAL-85-1; 0.99 nM): 94.8% | normalised viability (CAL-51; 0.99 nM): 90.3% | normalised viability (HCC1937; 9.9 nM): 115% | normalised viability (MDA-MB-468; 9.9 nM): 105% | normalised viability (MFM-223; 9.9 nM): 98.2% | normalised viability (HCC1143; 9.9 nM): 87.7% | normalised viability (SK-BR-3; 9.9 nM): 92% | normalised viability (CAL-148; 0.99 nM): 85% | normalised viability (HDQ-P1; 0.99 nM): 106% | normalised viability (DU-4475; 0.99 nM): 98.2% | normalised viability (BT-474 [2]; 9.9 nM): 104%
